# How the values were obtained:
# [1] = Comparative example: direct dissolution of latanoprost in water containing NaH2PO4 with stirring; assay type: physicochemical
# Procedure: Latanoprost (5.621 mg) was dissolved in water (100 mL), containing NaH2PO4 (0.463 g). The mixture was stirred for 120 minutes.
# The mixture from Example 3 was heated at 40° C. with stirring for 120 minutes. A solution of Latanoprost with concentration 0.00407% (w/v, or 81.4% of target concentration 0.005%) was obtained.
# [2] = Dissolving or dispersing the compound-covered substrate matrix (dry powder) in water; assay type: physicochemical
# Procedure: 1 mL of the Latanoprost solution (6.4 mg/mL) in ethanol was added to a mixture of NaH2PO4*H2O (0.553 g) and Na2HPO4 (0.564 g). The resulting mixture was dried under reduced pressure at room temperature to yield dry powder particles having latanoprost on the surface thereof. The dry powder was dissolved in water (120 mL) to form a solution. Benzalkonium chloride was added to the solution.
# Latanoprost (17.97 mg) was dissolved in acetonitrile (5 mL). 1.5 mL of this solution were added to mixture of NaH2PO4 (0.464 g) and Na2HPO4 (0.469 g). The resulting mixture was dried under reduced pressure to obtain a dry powder. 50 mL of water were added to dry powder and stirred during 5 minutes. A fine suspension of Latanoprost with concentration about 0.01% (w/v) was obtained. 50 mL of water, containing Benzalkonium chloride and sodium chloride, were added to this suspension and stirred. The obtained clear solution of Latanoprost had concentration 0.005% (w/v).
# Dexamethasone (104.05 mg) was dissolved in acetonitrile (5 mL). 1 mL of this solution was added to 545 mg of NaH2PO4*H2O and the mixture was dried in a reduced pressure for 15 hours. 20 mL of water were added and mixture was stirred. A fine suspension of dexamethasone (concentration about 0.1% w/v) was obtained.
structure (smiles),measurement,setting,value
"CC(C)OC(=O)CCC/C=C\C[C@@H]1[C@@H](CC[C@@H](O)CCc2ccccc2)[C@H](O)C[C@@H]1O [Latanoprost, Isopropyl (Z)-7-{(1R,2R,3R,5S)-3,5-dihydroxy-2-[3(R)-(3-hydroxyl-5-phenyl)pentyl]cyclopentyl}-5-heptenoate]",Latanoprost concentration of aqueous solution,"[1]; Example 3 (comparative): 5.621 mg in water (100 mL) with NaH2PO4, stirred 120 minutes",0.00015 % (w/v)
same,percent of target concentration of 0.005%,"[1]; Example 3 (comparative): stirred 120 minutes, no heating",30%
same,percent of target concentration 0.005%,[1]; Example 4 (comparative): heated at 40° C. with stirring for 120 minutes,81.4%
same,concentration of solution of Latanoprost,[1]; Example 4 (comparative): mixture from Example 3 heated at 40° C. with stirring for 120 minutes,0.00407 % (w/v)
same,content of Latanoprost in resultant solution,"[2]; Example 1: ethanol solution dried on NaH2PO4*H2O/Na2HPO4, powder dissolved in water (120 mL), benzalkonium chloride added, room temperature",0.005 % (w/v)
same,appearance and stability of resultant solution,"[2]; Example 1: powder dissolved in water (120 mL), benzalkonium chloride added",transparent and stable
same,concentration of fine suspension of Latanoprost,"[2]; Example 2: acetonitrile solution dried on NaH2PO4/Na2HPO4, 50 mL water, stirred 5 minutes",about 0.01 % (w/v)
same,concentration of obtained clear solution of Latanoprost,[2]; Example 2: after further 50 mL water containing benzalkonium chloride and sodium chloride,0.005 % (w/v)
